This series is described as follows: in vitro. The settings on record: human, hela cells, % viability.

As to `CN1C[C@@H](NC(=O)Nc2cccc(C#N)c2)C[C@H]1c1nc(-c2ccncc2)no1` [CBK288856], the viability at 28.5 h, 10 µM is 112%.
With `CC(Nc1cc(N2CCN(CCO)CC2)ccc1[N+](=O)[O-])c1ccccc1` (centres unmarked) [CBK033838], the viability at 28.5 h, 10 µM was 106%.
The same measure, in the same setting: with `O=C(Cn1nc(C(=O)O)c2ccccc2c1=O)NCc1ccc(Cl)cc1Cl` [CBK295320] the figure was 85.4%.
Regarding `O=C1NC(=O)C(CCCCN2CCC(Cc3ccccc3)CC2)N1` (centres unmarked) [CBK126435], the viability at 28.5 h, 10 µM is 91.8%.
On the same count and under the same terms, for `CCc1nc2cc(NC(=O)c3csc(C(C)=O)c3)ccc2n1C` [CBK282522] the value was 105%; for `CCc1ccc(CNC2CCN(Cc3cscn3)CC2)o1` [CBK305104], 92.7%.
With `Cc1oc(-c2ccc(Cl)cc2)cc1C(=O)CC#N` [CBK047603], the viability at 28.5 h, 10 µM was determined as 85.4%.
In the case of `O=C(Nc1cccnc1)c1cccnc1C(=O)O` [CBK269663], the viability at 28.5 h, 10 µM was found to be 90.1%.
Still for that read-out and setting: with `Cn1ccc(C(=O)N2CCC[C@H](C(=O)c3ccc(F)cc3)C2)n1` [CBK284333] the figure was 88.3%; with `O=c1c2cc(F)ccc2nc2n1CCN(Cc1ccsc1)CC2` [CBK284860], 106%; with `Cn1ncc2c1CCCN(C(=O)c1ccccc1C(F)(F)F)C2` [CBK282251], 84.1%.
In the case of `Cn1ncc2ccc(-c3nnn[nH]3)cc21` [CBK304776], the viability at 28.5 h, 10 µM was found to be 93%.
Turning to `O=C(NC1CC1)c1ccc(-n2cccn2)c(C#Cc2cccnc2)c1` [CBK282449], the viability at 28.5 h, 10 µM was found to be 107%.
On to `COc1ccc(C(=O)Nc2ccc(N3CCN(C(=O)C(C)(C)C)CC3)cc2)cc1OC` [CBK270245], for which the viability at 28.5 h, 10 µM worked out at 90.6%.
For the molecule `O=C(O)c1cn(CCN2C(=O)c3ccccc3C2=O)nn1` [CBK286543], the viability at 28.5 h, 10 µM turned out to be 91%.
For `Oc1cccc(-c2nccnc2NCc2cccs2)c1` [CBK037343], the viability at 28.5 h, 10 µM is 88.8%.
Still for that read-out and setting: with `Sc1nnc(CSCc2ccccc2Cl)n1-c1ccccc1` [CBK265219] the figure was 100%; with `CCc1cccc(C)c1N(C(=O)Cn1c(=O)[nH]c2ccccc21)C(C)COC` (centres unmarked) [CBK287950], 80.1%.
Turning to `CCc1nnsc1C(=O)Nc1nn(C)c2cccc(N3CCOCC3)c12` [CBK307671], the viability at 28.5 h, 10 µM was determined as 84.4%.
Same read-out and setting: for `Cn1cncc1CN(CCCn1ccnc1)Cc1ccccc1F` [CBK282960] the value was 85%.
The same measure, in the same setting: with `CC(CSSCC(C)C(=O)O)C(=O)O` (centres unmarked) [CBK260940] the figure was 96.7%.
Still for that read-out and setting: with `C[C@H](Nc1nc(-c2cc(C(F)(F)F)cc(C(F)(F)F)c2)cnc1N)c1ccccc1` [CBK063768] the figure was 106%.
As for `NC(=O)C1CCN(CC(=O)Nc2cc(C(F)(F)F)ccc2Cl)CC1` [CBK269776], the viability at 28.5 h, 10 µM amounted to 100%.
Still for that read-out and setting: with `O=C(O)COCc1cc(-c2ccc3c(c2)OCO3)on1` [CBK286883] the figure was 110%.
Same read-out and setting: for `CN1CCN(C(=O)COc2ccc(S(=O)(=O)Nc3ccc(F)cc3)cc2)CC1` [CBK268454] the value was 94.5%; for `COc1cc(OC)nc(CN2CCOC3(CCN(C(=O)c4ccc5ccccc5c4)CC3)C2)n1` [CBK161121A], 91.6%.
Still for that read-out and setting: for `CCOC(=O)c1cnc2c(C)c(Cl)ccc2c1NCCCN1CCOCC1` [CBK265296] the value was 99.6%; for `CC(=O)Nc1ccc(C#CC2(NC(=O)C3CC3)CCCCC2)cn1` [CBK284676], 87.4%.
As for `O=P(O)(CCc1ccccc1)CN1CCOCC1` [CBK262305], the viability at 28.5 h, 10 µM came out at 104%.
Same read-out and setting: with `COc1ccc(Cl)cc1S(=O)(=O)N1CCC(C(=O)NCCO)CC1` [CBK270002] the figure was 84%; with `Cc1ccc(CN(CCCn2ccnc2)Cc2cnn(C)c2)s1` [CBK283113], 97.3%.
As to `CCn1cc(C(=O)N2CCCCC2c2nc3ccccc3[nH]2)c(C)n1` (centres unmarked) [CBK283778], the viability at 28.5 h, 10 µM was 91.5%.
On the same count and under the same terms, for `O=c1/c(=C/c2cccnc2)sc2n1CN(c1cccc([N+](=O)[O-])c1)CN=2` [CBK264401] the value was 76.9%; for `CN1CCN(c2ccc(-c3cccc(N(C)C)c3)cn2)CC1` [CBK037621], 102%; for `O=C(CCCOc1ccccc1)Nc1ccc(N2CCNCC2)nc1` [CBK028270T], 98.2%.
For `CC(C)[C@@H]1C[C@H](C(F)(F)F)n2nc(C3CCCNC3)cc2N1` (some centres unmarked) [CBK283056], the viability at 28.5 h, 10 µM stood at 98.6%.
In the case of `c1ccc(CCc2nn3c(Cn4cnc5ccccc54)nnc3s2)cc1` [CBK268332], the viability at 28.5 h, 10 µM came out at 84.2%.
On the same count and under the same terms, with `CCc1nnc(NCC2CCCCC2)s1` [CBK075044] the figure was 88.1%.
Same read-out and setting: with `COc1cc(C(=O)Oc2cccc(Nc3ncnc4ccccc34)c2)cc(OC)c1OC` [CBK264908] the figure was 109%; with `NC1CCC(Nc2cncc(-c3ccc(F)c(Cl)c3)n2)CC1` (centres unmarked) [CBK037893], 99.6%.
Regarding `COc1ccccc1NC(=O)N1CCC2(CC1)OCc1cc(-c3ccccc3)ccc1O2` [CBK060599], the viability at 28.5 h, 10 µM (bulk resorufin, single well) came out at 109%.
In the case of `CS(=O)(=O)c1ccc(-c2cnc(N)c(NCCCO)n2)cc1` [CBK063587], the viability at 28.5 h, 10 µM amounted to 87.3%.
In the case of `N#CC1C(=S)NC2=C(CCCC2)C12CCCCC2` (centres unmarked) [CBK288493], the viability at 28.5 h, 10 µM came out at 103%.
On to `Cc1cnc2c(Cl)c(C(=O)NCC(F)(F)F)nn2c1` [CBK307391], for which the viability at 28.5 h, 10 µM turned out to be 93.1%.
Take `CC(NC(=O)CC1(N2CCOCC2)CCCC1)c1cccc(C#N)c1` (centres unmarked) [CBK305320]: the viability at 28.5 h, 10 µM was found to be 106%.
Still for that read-out and setting: for `Cc1nn(-c2nc3ccccc3s2)c(O)c1C1OC(=O)c2ccccc21` (centres unmarked) [CBK267220] the value was 95%; for `COC(=O)C1=C(Cn2ccc(C(F)(F)F)n2)NC(=O)NC1c1cc(C)ccc1C` (centres unmarked) [CBK268792], 105%.
Consider `COc1ccccc1C(=O)Nc1sc2c(c1C#N)CC(C)(C)NC2(C)C` [CBK307233], for which the viability at 28.5 h, 10 µM is 99.9%.
On the same count and under the same terms, for `CCC(Sc1nc(C)cc(C)n1)C(=O)Nc1ccc(NC(C)=O)cc1` (centres unmarked) [CBK269804] the value was 89%.
In the case of `CN1C[C@]2(CC[C@@H](C(=O)N3CCCC3)CC2)Oc2ccccc2C1=O` [CBK284886], the viability at 28.5 h, 10 µM was 103%.
Still for that read-out and setting: with `CCN1CCCC1CN(Cc1cccs1)Cc1cnc(C)n1C` (centres unmarked) [CBK282603] the figure was 91.5%; with `COc1ccc(C)cc1-n1ccc(C(=O)NCC2(C)CCCS2)n1` (centres unmarked) [CBK305355], 83.3%.
Still for that read-out and setting: for `Fc1ccccc1COc1cccc(CNCc2ccccn2)c1` [CBK268552C] the value was 101%; for `COc1cc(CN2CCC3(CC2)CN(S(C)(=O)=O)c2ccccc23)cc(OC)c1OC` [CBK126669], 100%.
For `Cn1c(=O)oc2cc(NC(=O)CC3CCN(Cc4cccc(C(F)(F)F)c4)CC3)ccc21` [CBK285953], the viability at 28.5 h, 10 µM was determined as 90%.
As for `CC(Oc1ccc(/C=C/[N+](=O)[O-])cc1)C(=O)O` (centres unmarked) [CBK264042], the viability at 28.5 h, 10 µM came out at 99.9%.
On the same count and under the same terms, for `O=C(O)C1Cc2ccccc2CN1C(=O)c1ccccc1` (centres unmarked) [CBK286628] the value was 102%; for `COc1ccccc1N1CCN(CC(CC(=O)Nc2ccccc2)C(=O)O)CC1` (centres unmarked) [CBK286766], 88.6%; for `CC(=O)c1cc(C(=O)Nc2ccc(Oc3ccc4c(c3)OCO4)cc2)cs1` [CBK286327], 92.5%.
Same read-out and setting: for `Cc1cc(COc2cc(N3CCCC3)ncn2)no1` [CBK115898] the value was 93.1%.
With `CC(NS(=O)(=O)c1cccc2c(S(=O)(=O)NC(C)c3ccccc3)cccc12)c1ccccc1` (centres unmarked) [CBK267717], the viability at 28.5 h, 10 µM was found to be 83.6%.
Same read-out and setting: for `O=C(CC1NC(=O)N(C2CCCCC2)C1=O)Nc1cccc(CCc2ccncc2)c1` (centres unmarked) [CBK285563] the value was 93.1%; for `O=C(O)c1cccc(NS(=O)(=O)c2ccc(OC(F)(F)F)cc2)c1` [CBK155077], 92.7%.
With `O=C(NCCCn1ccnc1)C1CCN(C(=O)c2cccc(Cl)c2)CC1` [CBK307596], the viability at 28.5 h, 10 µM came out at 116%.
Same read-out and setting: with `O=C(O)CC1C(=O)NCCN1Cc1ccc(-c2ccccc2)cc1` (centres unmarked) [CBK269812] the figure was 91%.
On the same count and under the same terms, with `N#Cc1nc(-c2ccco2)oc1N1CCN(C(=O)c2cc3c(s2)CCCCC3)CC1` [CBK240763] the figure was 93.9%.
Still for that read-out and setting: for `O=C(CSCc1c(F)cccc1Cl)Nc1ccc(S(=O)(=O)N2CCCCCC2)cc1` [CBK268497] the value was 100%.
Turning to `Cc1nn(CC(=O)N(C)C(C)c2ccncn2)c(=O)c2ccccc12` (centres unmarked) [CBK307669], the viability at 28.5 h, 10 µM was 89%.
Still for that read-out and setting: with `CCC(C(=O)O)N1C(=O)C(=Cc2ccc(-c3ccccc3C(F)(F)F)o2)SC1=S` (centres unmarked) [CBK296985] the figure was 99.4%; with `O=C(Cc1ccc(Cl)cc1Cl)Nc1ccc2ncccc2c1` [CBK159787], 91.5%; with `O=C(c1cccs1)N1CCC[C@H]1[C@H](O)c1nccs1` [CBK284285], 92.1%.
Take `COc1ccc(C(=O)Nc2ccc(S(=O)(=O)N3CCN(C)CC3)cc2)cc1[N+](=O)[O-]` [CBK268140]: the viability at 28.5 h, 10 µM is 97%.
As to `O=[N+]([O-])c1ccc(-c2csc(Nc3ccc4c(c3)OCO4)n2)cc1` [CBK262448B], the viability at 28.5 h, 10 µM came out at 100%.
For the molecule `Cc1ccc(S(=O)(=O)NC(C)C(=O)Nc2ccc(C)c(Cl)c2)cc1` (centres unmarked) [CBK266263], the viability at 28.5 h, 10 µM was found to be 98%.
The same measure, in the same setting: for `C#CCNC(=O)[C@H]1O[C@H](CCN2CCOCC2)CC[C@@H]1O` [CBK288729] the value was 102%; for `CNCC1CCN(S(=O)(=O)c2ccc(OCc3ncnn3C)cc2)CC1` [CBK304309C], 97.6%.
Still for that read-out and setting: with `O=C(NCc1ccncc1)Nc1ccc([N+](=O)[O-])cc1` [CBK264319] the figure was 110%; with `Nc1ncnc(NNC(=O)CNC(=O)c2ccccc2C(F)(F)F)c1[N+](=O)[O-]` [CBK267186], 94.1%.
Regarding `Nc1cc(N)nc(SCc2cccnc2)n1` [CBK267459], the viability at 28.5 h, 10 µM is 97.5%.
The same measure, in the same setting: with `Cc1c(Br)c(C(F)(F)F)nn1CC(=O)Nc1ccc(Oc2cc([N+](=O)[O-])cc([N+](=O)[O-])c2)cc1` [CBK262558] the figure was 97.5%.

These data come from paper PMC12040169 (PLOS Biology, 2025).
